Laboratory results taken from patent US20260285853A1, “COMPOUNDS AND METHODS FOR MODULATING SPLICING” (REMIX THERAPEUTICS INC., priority 2023, published 2026).

What was measured:
MYB mRNA = assay: Splicing RT-qPCR assay, canonical (CJ) and alternative (AJ) junction mRNA, K562 cells; assay type: cell-based; details: Homo sapiens, K562.3 cells, 24 hours; for AC50: read-out: MYB AJ (AC50, increase in AJ mRNA); for IC50: read-out: MYB CJ (IC50, decrease in CJ mRNA)
Summary of the method: (§1)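 Plate K562 cells, add compound (top 10 uM final, DMSO ≤0.25%) and incubate 24 h. Lyse, run one-step RT-qPCR for CJ and AJ, normalize to GAPDH or GUSB, then to DMSO, and express as % response.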

HTT mRNA = assay: as above; assay type: cell-based; details: Homo sapiens, K562.3 cells, 24 hours; for AC50: read-out: HTT AJ (AC50, increase in AJ mRNA); for IC50: read-out: HTT CJ (IC50, decrease in CJ mRNA)
Summary of the method: as §1

Row | Structure (SMILES) | AC50 (MYB mRNA) | IC50 (MYB mRNA) | AC50 (HTT mRNA) | IC50 (HTT mRNA)
1 | Cc1cn2cc(NC(=O)c3c(F)cc(N4CC[C@H](NCC56CC(CO5)C6)C4)c4cn(C)nc34)cc(F)c2n1 [Compound 157, 6-fluoro-N-(8-fluoro-2-methyl-imidazo[1,2-a]pyridin-6-yl)-2-methyl-4-[(3S)-3-(2-oxabicyclo[2.1.1]hexan-1-ylmethylamino)pyrrolidin-1-yl]indazole-7-carboxamide] | < 100 nM | 100 to 1000 nM | > 10000 nM | > 10000 nM
2 | CN[C@H]1CCN(c2ccc(C(=O)Nc3cc(F)c4nc(C)cn4c3)c3c2nnn3C)C1 [Compound 160, N-(8-fluoro-2-methyl-imidazo[1,2-a]pyridin-6-yl)-3-methyl-7-[(3S)-3-(methylamino)-pyrrolidin-1-yl]benzotriazole-4-carboxamide] | > 10000 nM | > 10000 nM | > 10000 nM | > 10000 nM
3 | CN[C@H]1CCN(c2ccc(C(=O)Nc3cc(F)c4nc(C)cn4c3)c3nn(C)nc23)C1 [Compound 163, (S)-N-(8-fluoro-2-methylimidazo-[1,2-a]pyridin-6-yl)-2-methyl-7-(3-(methylamino)pyrrolidin-1-yl)-2H-benzo[d]-[1,2,3]triazole-4-carboxamide] | 100 to 1000 nM | 100 to 1000 nM | 100 to 1000 nM | 100 to 1000 nM
4 | CN[C@H]1CCN(c2ccc(C(=O)Nc3cc(F)c4nc(C)cn4c3)c3nnn(C)c23)C1 [Compound 166, (S)-N-(8-fluoro-2-methylimidazo-[1,2-a]pyridin-6-yl)-1-methyl-7-(3-(methylamino)pyrrolidin-1-yl)-1H-benzo[d]-[1,2,3]triazole-4-carboxamide] | 100 to 1000 nM | 100 to 1000 nM | > 10000 nM | > 10000 nM
5 | CCNC1CCN(c2ccc(C(=O)Nc3cc(OC)c4nc(C)cn4c3)c3nn(C)cc23)CC1 [Compound 175, 4-(4-(ethylamino)piperidin-1-yl)-N-(8-methoxy-2-methyl-imidazo-[1,2-a]pyridin-6-yl)-2-methyl-2H-indazole-7-carboxamide] | 100 to 1000 nM | 100 to 1000 nM | 1000 to 10000 nM | 100 to 1000 nM
6 | CCNC1CCN(c2ccc(C(=O)Nc3ccc4nc(C)cn4c3)c3nn(C)cc23)CC1 [Compound 176, 4-[4-(ethylamino)-1-piperidyl]-2-methyl-N-(2-methylimidazo[1,2-a]pyridin-6-yl)-indazole-7-carboxamide] | 100 to 1000 nM | 100 to 1000 nM | > 10000 nM | 1000 to 10000 nM
7 | CCNC1CCN(c2ccc(C(=O)Nc3cc(F)c4nc(C(C)C)cn4c3)c3nn(C)cc23)CC1 [Compound 177, 4-[4-(ethylamino)-1-piperidyl]-N-(8-fluoro-2-isopropyl-imidazo[1,2-a]pyridin-6-yl)-2-methyl-indazole-7-carboxamide] | > 10000 nM | > 10000 nM | > 10000 nM | 1000 to 10000 nM
8 | CCNC1CCN(c2ccc(C(=O)Nc3cc4cn(C)nc4cc3OC)c3[nH]ccc23)CC1 [Compound 178, 4-[4-(ethylamino)-1-piperidyl]-N-(6-methoxy-2-methyl-indazol-5-yl)-1H-indole-7-carboxamide] | > 10000 nM | > 10000 nM | > 10000 nM | > 10000 nM
9 | CNC1(C)CCN(c2cc(F)c(C(=O)Nc3cc(F)c4nc(C)cn4c3)c3nn(C)cc23)CC1 [Compound 179, 6-fluoro-N-(8-fluoro-2-methyl-imidazo[1,2-a]pyridin-6-yl)-2-methyl-4-[4-methyl-4-(methylamino)-1-piperidyl]indazole-7-carboxamide] | < 100 nM | < 100 nM | < 100 nM | < 100 nM
10 | CNC1(C)CCN(c2cc(F)c(C(=O)Nc3cn4cc(C)nc4c(F)c3OC)c3nn(C)cc23)CC1 [Compound 180, 6-fluoro-N-(8-fluoro-7-methoxy-2-methyl-imidazo[1,2-a]pyridin-6-yl)-2-methyl-4-[4-methyl-4-(methylamino)-1-piperidyl]indazole-7-carboxamide] | < 100 nM | < 100 nM | < 100 nM | < 100 nM
11 | CCNC1CCN(c2ccc(C(=O)Nc3cn4cc(C)nc(C)c4n3)c3nn(C)cc23)CC1 [Compound 181, N-(6,8-dimethylimidazo [1,2-a]pyrazin-2-yl)-4-[4-(ethylamino)-1-piperidyl]-2-methyl-indazole-7-carboxamide] | 100 to 1000 nM | 100 to 1000 nM | 100 to 1000 nM | 100 to 1000 nM
12 | CCNC1CCN(c2ccc(C(=O)Nc3cc(F)c4nn(C)cc4c3)c3nn(C)cc23)CC1 [Compound 182, 4-(4-(ethylamino)piperidin-1-yl)-N-(7-fluoro-2-methyl-2H-indazol-5-yl)-2-methyl-2H-indazole-7-carboxamide] | 100 to 1000 nM | < 100 nM | 1000 to 10000 nM | 1000 to 10000 nM
13 | Cc1cn2cc(NC(=O)c3ccc(N4CCC(NC5CC5)CC4)c4cc(C)oc34)cc(F)c2n1 [Compound 185, 4-[4-(cyclopropyl-amino)-1-piperidyl]-N-(8-fluoro-2-methyl-imidazo[1,2-a]pyridin-6-yl)-2-methyl-benzofuran-7-carboxamide] | 100 to 1000 nM | 100 to 1000 nM | 1000 to 10000 nM | 1000 to 10000 nM
14 | CCNC1CCN(c2ccc(C(=O)Nc3cc(C)c4nc(C)cn4n3)c3nn(C)cc23)CC1 [Compound 186, N-(2,8-dimethylimidazo [1,2-b]pyridazin-6-yl)-4-[4-(ethylamino)-1-piperidyl]-2-methyl-indazole-7-carboxamide] | 100 to 1000 nM | 100 to 1000 nM | 100 to 1000 nM | 100 to 1000 nM
15 | Cc1cn2nc(NC(=O)c3ccc(N4CCC(NC5CC5)CC4)c4cn(C)nc34)cc(C)c2n1 [Compound 187, 4-[4-(cyclopropylamino)-1-piperidyl]-N-(2,8-dimethylimidazo-[1,2-b]pyridazin-6-yl)-2-methyl-indazole-7-carboxamide] | 100 to 1000 nM | 100 to 1000 nM | 100 to 1000 nM | 100 to 1000 nM
16 | CCNC1CCN(c2ccc(C(=O)Nc3cc(F)c4nc(C)c(C)n4c3)c3nn(C)cc23)CC1 [Compound 188, 4-[4-(ethylamino)-1-piperidyl]-N-(8-fluoro-2,3-dimethyl-imidazo[1,2-a]pyridin-6-yl)-2-methyl-indazole-7-carboxamide] | > 10000 nM | > 10000 nM | > 10000 nM | > 10000 nM
17 | Cc1nc2c(F)cc(NC(=O)c3ccc(N4CCC(NC5CC5)CC4)c4cn(C)nc34)cn2c1C [Compound 189, 4-[4-(cyclopropylamino)-1-piperidyl]-N-(8-fluoro-2,3-dimethyl-imidazo[1,2-a]pyridin-6-yl)-2-methyl-indazole-7-carboxamide] | > 10000 nM | > 10000 nM | > 10000 nM | > 10000 nM
18 | CCNC1CCN(c2ccc(C(=O)Nc3cc4cn(C)nc4cc3O)c3[nH]ccc23)CC1 [Compound 190, 4-[4-(ethylamino)-1-piperidyl]-N-(6-hydroxy-2-methyl-indazol-5-yl)-1H-indole-7-carboxamide] | > 10000 nM | > 10000 nM | > 10000 nM | > 10000 nM
19 | Cc1cn2cc(NC(=O)c3ccc(N4CCC(NC5CC5)CC4)c4ccoc34)cc(F)c2n1 [Compound 191, 4-[4-(cyclopropylamino)-1-piperidyl]-N-(8-fluoro-2-methyl-imidazo[1,2-a]pyridin-6-yl) benzofuran-7-carboxamide] | 100 to 1000 nM | 100 to 1000 nM | 1000 to 10000 nM | 1000 to 10000 nM
